Test results published in patent US9388224B2, “Compositions for preserving insulin-producing cells and insulin production and treating diabetes” (VANDERBILT UNIVERSITY, priority 2011, dated 2016).
Bridge positions count the residues as written; N and C are the ends. Ends that are not written are not given here. Peptide text beside a SMILES is read from it.

What was measured:
NOD mice = test: Toxicity observation and clinical chemistry in treated NOD mice
Protocol: ALT and BUN levels were determined on a VITROS 250 Chemistry analyzer using multi-layered vitros slides and colorimetric or enzyme rate tests as appropriate.
Ten week old female NOD mice received one dose of Cy (0.2 mg/g); after 45 h, intracellular peptide delivery was initiated with cSN50 (35 μg/g) or with control cN50 and continued every 2 h for 48 h. Serum was obtained daily from the saphenous vein and measurements of ALT (FIG. 8A) and BUN (FIG. 8B) were performed in 7 mice in each group.

[1] = Anti-cSN50 peptide antibody induction (ELISA); assay type: in vivo, NOD mice; conditions: limit of detection 10 ng/mL
[2] = Continued peptide delivery in other disease models, toxicity; assay type: in vivo; conditions: up to 8 weeks, health, survival, weight gain, liver enzymes, blood cell counts normal
Text: Reduction or complete elimination of islet-destructive autoreactive T and B cells may be useful in treating T1D and potentially other autoimmune diseases. Other autoimmune disorders include Systemic Lupus Erythematosus, Multiple Sclerosis, Rheumatoid Arthritis, Crohn Diseases, and Ulcerative Collitis. Under conditions of metabolic, inflammatory, and oxidant stress, beta cell mass may be further controlled by important interactions between bone marrow-derived cells and islet beta cells. Transcriptional modulation of these interactions via targeting of the nuclear import machinery represents an important new opportunity for therapeutic development. Even though cSN50 can modulate nuclear transport of several stress-responsive transcription factors that utilize importin alpha 1/karyopherin alpha 5 (as well as other importins/karyopherins, e.g., importin alpha 5/karyopherin) for nuclear trafficking, intracellular delivery of the Nuclear Transport Modifier is rapid and restricted to the relatively short intracellular persistence of the injected cargo (Hawiger J., (1999) Current Opinion in Chem. Biology 3:89-94). Despite high intensity dosing of cSN50 in the protocols disclosed herein, short-term or long-term adverse effects were not observed. […] In preliminary studies, spontaneous disease was reversed in 40% of the NOD mice during a continuing NTM treatment for 3 weeks.

[3] = test system: autoimmune diabetes in NOD mice; test: Autoimmune diabetes progression in cyclophosphamide-synchronized NOD mice (blood glucose); assay type: in vivo; conditions: general statement, experiments described herein
Text: NOD/LtJ, NOD-BDC2.5 and C57BL/6 mice were purchased from the Jackson Laboratories (Bar Harbor, Me.) at 6-8 weeks of age. All mice were housed and maintained according to the guidelines for use and care of laboratory animals as set forth by Vanderbilt University and regulated via the Vanderbilt IACUC. All NOD mice were monitored twice weekly for the development of diabetes by blood glucose measurement with FreeStyle® FastTake test strips (Abbott Laboratories, Abbott Park, Ill.). Two consecutive glucose measurements >220 mg/dl constituted a diagnosis of diabetes. A colony of NOD mice kept by a collaborating laboratory in the same animal suite has a spontaneous diabetes incidence of 80-90% in females by 30 weeks of age indicating an animal environment that is conducive for diabetes development.
At 10-11 weeks of age, female NOD mice received an intraperitoneal bolus injection of 200 mg/kg cyclophosphamide (Sigma). Cyclophosphamide was prepared by reconstitution of powder in sterile saline for injection.
45 h after diabetes synchronization with cyclophosphamide, treatment with cSN50 or control was initiated. Mice receiving cSN50 were given 35 μg/g of cSN50 i.p. every two hours for the next 48 h. Control mice received either saline or non-cell penetrating cN50 peptide at molar equivalent (20 μg/g). cN50 peptide, contains the cyclized NLS but lacks the membrane translocating motif. […]

[4] = In vivo intracellular peptide delivery to the pancreas (confocal microscopy); set-up: species or system NOD mice; conditions: single i.p. injection (0.7 mg FITC-labeled peptide/mouse or FITC of equivalent fluorescence); 2 h after injection
Text: Cell-penetrating peptide (cSN50, MW=3149; cSN50.1, MW=2986), and non-cell-penetrating peptide (cN50, MW=1651), were synthesized, purified, filter-sterilized, and analyzed as described elsewhere (Torgerson et al. (1998) J Immunol 161: 6084-6092; Liu et al. (2000) J Biol Chem 275: 16774-16778). To monitor the intracellular delivery of peptides to pancreas, cSN50 peptide was coupled with fluorescein isothiocyanate (FITC, Pierce) according to the manufacturer's protocol.
For in vivo detection of fluorescein-labeled peptides in the pancreas, NOD mice were sacrificed at 2 h after intraperitoneal (i.p.) injection of 0.7 mg of FITC-labeled cSN50 peptide/mouse. The pancreata were washed with saline and prepared for cryosections (10 μm thickness). Control solution of FITC alone with equivalent fluorescence units was injected separately to track distribution to the pancreas.
Intracellular delivery of a Nuclear Transport Modifier to the pancreas reduces islet inflammation (insulitis). […] It was first determined whether cSN50 would be delivered to the pancreas, the primary site of autoimmune attack against beta cells in pancreatic islets. […] Using confocal microscopy, the pancreatic delivery of FITC-labeled cSN50 peptide following a single intraperitoneal (i.p.) injection was assessed. […]

In the case of `CSCC[C@@H]1NC(=O)[C@H](CC(C)C)NC(=O)[C@H](CCCCN)NC(=O)[C@H](CCC(N)=O)NC(=O)[C@H](CCCNC(=N)N)NC(=O)[C@H](CCCCN)NC(=O)[C@H](CCCNC(=N)N)NC(=O)[C@H](CCC(N)=O)NC(=O)[C@H](C(C)C)NC(=O)[C@H](Cc2ccc(O)cc2)NC(=O)[C@@H](NC(=O)[C@@H]2CCCN2C(=O)[C@H](C)NC(=O)[C@H](CC(C)C)NC(=O)[C@H](CC(C)C)NC(=O)[C@H](C)NC(=O)[C@H](CC(C)C)NC(=O)[C@H](CC(C)C)NC(=O)[C@@H](NC(=O)[C@H](C)NC(=O)[C@@H]2CCCN2C(=O)[C@H](CC(C)C)NC(=O)[C@H](CC(C)C)NC(=O)[C@H](C)NC(=O)[C@@H](NC(=O)[C@H](C)NC(=O)[C@H](C)N)C(C)C)C(C)C)CSSC[C@@H](C(=O)O)NC(=O)[C@@H]2CCCN2C1=O` [cSN50] (H-AAVALLPAVLLALLAPCYVQRKRQKLMPC-OH; disulfide 17-29; N-terminus and C-terminus assumed), the “overt signs of toxicity” value (NOD mice; 365 days of observation after 48 h treatment) is reported as “did not display overt signs of toxicity”, the acquired infection (NOD mice; after intensive treatment) is reported as “no signs of acquired infection” and the weight gain (NOD mice; after intensive treatment) is reported as “normal weight gain”. For the same compound, the BUN level (NOD mice; serum daily, 7 mice per group, vs cN50 control) was “not significantly different from control”, the ALT level (NOD mice; serum daily, 7 mice per group, vs control) was “not significantly different from control” and the “alkaline phosphatase, creatinine, creatine kinase, and total bilirubin” value (NOD mice; serum, 7 mice per group) was “below the limit of detection”. The “anti-cSN50 peptide antibody induction” value [1] was “not detected” and the “toxicity on continued delivery” value [2] was “without evidence of toxicity”.
In the case of “AAVALLPAVLLALLAPCVQRKRQKLMPC (disulfide 17-28 (inferred)) [cSN50.1, cSN50 with the tyrosine at position 18 removed to increase solubility]”, the “islet protection from immune destruction” value [3] is reported as “effectively protected islets from immune destruction”.
For fluorescein isothiocyanate [FITC], the “delivery to / distribution in the pancreas” value [4] was “did not penetrate the organ”.
